In patent US5444174A, “16-membered macrolide derivative having sustained antibacterial activity in plasma, synthesis intermediate thereof and process for producing the same” (Meiji Seika Kaisha, Ltd., priority 1992, dated 1995):
Values after ≈ are worked out from the molar mass of the structure shown. Read-outs that look alike come from different tables or passages of the source.

How the values were obtained:
B. catarrhalis W-0500 = experiment: Antibacterial activity (MIC), agar plate dilution method; type: cell-based; details: Moraxella catarrhalis, W0500; 37° C., 20 hours; blood agar seed culture; B. catarrhalis W-0500; read-out: Antibacterial activity (MIC)
Method: (§1) Antibacterial activities of the compounds of formula (I) are shown in Table 1 in terms of minimum inhibitory concentration (MIC).
(§2) Minimum inhibitory concentration was determined by the agar plate dilution method. Test strains were subjected to seed culture using Sensitivity test broth (STB, Nissui Pharmaceutical) except that the strains belonging to the genus Streptococcus, Branhamella and Haemophilus were cultured on blood agar plate. A 5 μl portion of cell suspension of the test strains having about 10^6 CFU/ml was inoculated into Sensitivity disk agar (SDA, Nissui Pharmaceutical) supplemented with 5% horse blood and incubated at 37° C. for 20 hours. Then, MIC was measured.

B. catarrhalis W-0506 = experiment: as above; type: cell-based; details: Moraxella catarrhalis, read-out: Antibacterial activity (MIC)
Method: as §1, §2

E. coli NIHJ JC-2 = experiment: as above; type: cell-based; details: Escherichia coli, NIHJJC2, 37° C., 20 hours
Method: as §1, §2

Ent. faecalis W-73 = experiment: as above; type: cell-based; details: Enterococcus faecalis, W73, 37° C., 20 hours
Method: as §1, §2

H. influenza 9334 = experiment: as above; type: cell-based; details: 37° C., 20 hours, blood agar seed culture
Method: as §1, §2

K. pneumoniae PC1602 = experiment: as above; type: cell-based; details: Klebsiella pneumoniae, 37° C., 20 hours
Method: as §1, §2

M. luteus ATCC 9341 = experiment: as above; type: cell-based; details: Micrococcus luteus, ATCC9341, 37° C., 20 hours
Method: as §1, §2

S. Pyogenes Cook = experiment: as above; type: cell-based; details: Streptococcus pyogenes, 37° C., 20 hours, blood agar seed culture
Method: as §1, §2

S. pneumoniae IP692 = experiment: as above; type: cell-based; details: Streptococcus pneumoniae, 37° C., 20 hours, blood agar seed culture
Method: as §1, §2

S. pneumoniae Type 1 = experiment: as above; type: cell-based; details: Streptococcus pneumoniae, TYPE1, 37° C., 20 hours, blood agar seed culture
Method: as §1, §2

Sta. aureus 209P JC-1 = experiment: as above; type: cell-based; details: Staphylococcus aureus, 37° C., 20 hours
Method: as §1, §2

Sta. aureus M126 = experiment: as above; type: cell-based; details: Staphylococcus aureus, 37° C., 20 hours
Method: as §1, §2

Sta. aureus M133 = experiment: as above; type: cell-based; details: Staphylococcus aureus; 37° C., 20 hours; Sta. aureus M133; read-out: Antibacterial activity (MIC)
Method: as §1, §2

[1] = tested on: Sta. aureus MS15009/pMS98; experiment: as above; type: cell-based; details: Staphylococcus aureus, MS15009/PMS98, 20 h, read-out: Antibacterial activity (MIC)
Method: as §1, §2

[2] = tested on: Sta. aureus MS15009/pMS99; experiment: as above; type: cell-based; details: Staphylococcus aureus, MS15009/PMS99, 20 h, read-out: Antibacterial activity (MIC)
Method: as §1, §2

Sta. aureus MS15026 = experiment: as above; type: cell-based; details: Staphylococcus aureus, 37° C., 20 hours
Method: as §1, §2

Sta. aureus MS15027 = experiment: as above; type: cell-based; details: Staphylococcus aureus, read-out: Antibacterial activity (MIC)
Method: as §1, §2

[3] = tested on: Sta. epidermidis ATCC 14990; experiment: as above; type: cell-based; details: Staphylococcus epidermidis, ATCC14990; 37° C., 20 hours; Sta. epidermidis ATCC 14990; read-out: Antibacterial activity (MIC)
Method: as §1, §2

gram-positive bacteria = experiment: Antibacterial activities against gram-positive bacteria (summary of Table 1); type: cell-based; details: in words; for antibacterial activities compared with miokamycin: vs miokamycin
Method: as §1, §2

[4] = cited from earlier work
[5] = vs midecamycin; cited from earlier work
[6] = cited from earlier work; remark: listed apart in the source
[7] = human compared with rat; cited from earlier work
M. luteus [8] = type: in vitro ADME
Method: (§3) Each test compound and 50 μl of a methanol solution (10,000 γ) were added to 950 μl of thawed rat plasma and the resulting mixture was incubated at 37° C. A 20 μl portion of the mixture was sampled after 0, 1, 3, 6 and 24 hours and added to 980 μl of 0.05M phosphate buffer (pH 7.2). A 20 μl portion of the sample solution was used to measure antibacterial activity against M. luteus. Separately, the calibration curve was prepared by using a methanol solution containing each test compound. The starting activity of each compound in the plasma was referred to as 100%.
Changes in the antibacterial activities of miokamycin and the compound (14) against M. luteus were measured in the same manner as described above except for using fresh rat plasma in place of thawed rat plasma. The fresh rat plasma was prepared by collecting 50 ml of blood from five rats, treating the blood with heparin and subjecting it to centrifugation to obtain plasma.

[9] = Storage stability of synthesis intermediates; type: physicochemical; details: room temperature storage
M. luteus [10] = type: in vitro ADME; remark: listed apart in the source
Method: Changes in the antibacterial activities of miokamycin (MOM) and the compound (13) were measured in the following manner.
as §3

[11] = W0506, 37° C., 20 hours, blood agar seed culture, B. catarrhalis W-0506
[12] = 37° C., 20 hours, Sta. aureus MS15027

SMILES	MIC (B. catarrhalis W-0500) [µg/mL]	MIC (B. catarrhalis W-0506; [11]) [µg/mL]	MIC (E. coli NIHJ JC-2) [µg/mL]	MIC (Ent. faecalis W-73) [µg/mL]	MIC (H. influenza 9334) [µg/mL]	MIC (K. pneumoniae PC1602) [µg/mL]	MIC (M. luteus ATCC 9341) [µg/mL]	MIC (S. Pyogenes Cook) [µg/mL]	MIC (S. pneumoniae IP692) [µg/mL]	MIC (S. pneumoniae Type 1) [µg/mL]	MIC (Sta. aureus 209P JC-1) [µg/mL]	MIC (Sta. aureus M126) [µg/mL]	MIC (Sta. aureus M133) [µg/mL]	MIC [1] [µg/mL]	MIC [2] [µg/mL]	MIC (Sta. aureus MS15026) [µg/mL]	MIC (Sta. aureus MS15027; [12]) [µg/mL]	MIC [3] [µg/mL]	antibacterial activities compared with miokamycin (gram-positive bacteria)	antibacterial activities against gram-positive bacteria (gram-positive bacteria)	further results
CCCCO[C@H]1[C@H](C)O[C@@H](O[C@H]2[C@H](N(C)C)[C@@H](O)[C@H](O[C@H]3[C@@H](CC=O)C[C@@H](C)C(=O)/C=C/C=C/C[C@@H](C)OC(=O)C[C@@H](OC(=O)CC)[C@@H]3OC)O[C@@H]2C)C[C@@]1(C)OC [Compound (41)]	0.78 (≈ 0.944 µM)	0.78 (≈ 0.944 µM)	> 100	3.13 (≈ 3.79 µM)	6.25 (≈ 7.57 µM)	> 100	0.05 (≈ 0.0605 µM)	0.1 (≈ 0.121 µM)	0.1 (≈ 0.121 µM)	0.2 (≈ 0.242 µM)	0.2 (≈ 0.242 µM)	> 100	0.78 (≈ 0.944 µM)	0.39 (≈ 0.472 µM)	> 100	> 100	0.78 (≈ 0.944 µM)	1.56 (≈ 1.89 µM)	excellent antibacterial activities exceeding that of miokamycin	–	–
CCC(=O)O[C@@H]1CC(=O)O[C@H](C)C/C=C/C=C/[C@H](OC(C)=O)[C@H](C)C[C@H](CC=O)[C@H](O[C@@H]2O[C@H](C)[C@@H](O[C@H]3C[C@@](C)(OC(C)=O)[C@@H](OC(=O)CC)[C@H](C)O3)[C@H](N(C)C)[C@H]2O)[C@H]1OC [Miokamycin, miokamycin, reference compound]	1.56 (≈ 1.74 µM)	1.56 (≈ 1.74 µM)	> 100	1.56 (≈ 1.74 µM)	6.25 (≈ 6.96 µM)	> 100	0.1 (≈ 0.111 µM)	0.1 (≈ 0.111 µM)	0.2 (≈ 0.223 µM)	0.2 (≈ 0.223 µM)	0.2 (≈ 0.223 µM)	> 100	0.78 (≈ 0.869 µM)	0.78 (≈ 0.869 µM)	> 100	> 100	0.78 (≈ 0.869 µM)	0.78 (≈ 0.869 µM)	–	–	antibacterial activity after metabolism in vivo [4]: the antibacterial activity of this antibiotic is reduced; elimination of acyl group at the mycarose moiety in vivo [4]: eliminated in vivo; infection-protective action in vivo [5]: superior to midecamycin; recovery ratio in urine ([6]; vs midecamycin): superior to midecamycin; dynamics in vivo ([6]; vs natural compounds): superior in the dynamics in vivo to natural compounds; metabolic pattern of the deacylation of the mycarose moiety in human [7]: almost similar to that in rat
CCC(=O)O[C@@H]1CC(=O)O[C@H](C)C/C=C/C=C/C(=O)[C@H](C)C[C@H](CC=O)[C@H](O[C@@H]2O[C@H](C)[C@@H](O[C@H]3C[C@@](C)(OC)[C@@H](OCCC(C)C)[C@H](C)O3)[C@H](N(C)C)[C@H]2O)[C@H]1OC [Compound (14)]	0.78 (≈ 0.929 µM)	0.78 (≈ 0.929 µM)	> 100	1.56 (≈ 1.86 µM)	6.25 (≈ 7.44 µM)	> 100	0.1 (≈ 0.119 µM)	0.05 (≈ 0.0595 µM)	0.1 (≈ 0.119 µM)	0.2 (≈ 0.238 µM)	0.2 (≈ 0.238 µM)	> 100	0.78 (≈ 0.929 µM)	0.78 (≈ 0.929 µM)	> 100	> 100	0.78 (≈ 0.929 µM)	0.78 (≈ 0.929 µM)	excellent antibacterial activities exceeding that of miokamycin	have antibacterial activities against gram-positive bacteria	antibacterial activity in rat plasma over time (M. luteus [8]): antibacterial activity sustaining for a prolonged period of time in rat plasma; degree of the decrease in the antibacterial activity in plasma (M. luteus [8]): clearly lower degree of the decrease in the antibacterial activity in plasma, compared with miokamycin; metabolism at the mycarose moiety in plasma (M. luteus [8]): hardly metabolized at the mycarose moiety
CCC(=O)O[C@@H]1CC(=O)O[C@H](C)C/C=C/C=C/C(=O)[C@H](C)C[C@H](CC2OCCO2)[C@H](O[C@@H]2O[C@H](C)[C@@H](O)[C@H]([N+](C)(C)[O-])[C@H]2O)[C@H]1OC [Compound (2)]	–	–	–	–	–	–	–	–	–	–	–	–	–	–	–	–	–	–	–	–	stability [9]: so stable as to be stored at room temperature for a prolonged period of time
CCO[C@H]1[C@H](C)O[C@@H](O[C@H]2[C@H](N(C)C)[C@@H](O)[C@H](O[C@H]3[C@@H](CC=O)C[C@@H](C)C(=O)/C=C/C=C/C[C@@H](C)OC(=O)C[C@@H](OC(=O)CC)[C@@H]3OC)O[C@@H]2C)C[C@@]1(C)OC [Compound (13)]	3.13 (≈ 3.92 µM)	–	> 100	3.13 (≈ 3.92 µM)	100 (≈ 125 µM)	> 100	0.78 (≈ 0.977 µM)	0.78 (≈ 0.977 µM)	1.56 (≈ 1.95 µM)	1.56 (≈ 1.95 µM)	3.13 (≈ 3.92 µM)	> 100	3.13 (≈ 3.92 µM)	6.25 (≈ 7.83 µM)	> 100	> 100	–	12.5 (≈ 15.7 µM)	–	have antibacterial activities against gram-positive bacteria	MIC (B. catarrhalis W-0506; W0506, 20 h): 6.25 µg/mL (≈ 7.83 µM); MIC (Sta. aureus MS15027; MS15027, 20 h): 6.25 µg/mL (≈ 7.83 µM); antibacterial activity in rat plasma over time (M. luteus [10]): antibacterial activity sustaining for a prolonged period of time in rat plasma; degree of the decrease in the antibacterial activity in plasma (M. luteus [10]): clearly lower degree of the decrease in the antibacterial activity in plasma, compared with miokamycin; metabolism at the mycarose moiety in plasma (M. luteus [10]): hardly metabolized at the mycarose moiety
